The record followed here is ChEMBL document CHEMBL5543132, “Development of (2-(Benzyloxy)phenyl)methanamine Derivatives as Potent and Selective Inhibitors of CARM1 for the Treatment of Melanoma” (J Med Chem, 2024).

Experiment [1] concerns the target T1, Histone-arginine methyltransferase CARM1 (Homo sapiens, UniProt Q86X55).
T1 sequence (Q86X55 whole entry): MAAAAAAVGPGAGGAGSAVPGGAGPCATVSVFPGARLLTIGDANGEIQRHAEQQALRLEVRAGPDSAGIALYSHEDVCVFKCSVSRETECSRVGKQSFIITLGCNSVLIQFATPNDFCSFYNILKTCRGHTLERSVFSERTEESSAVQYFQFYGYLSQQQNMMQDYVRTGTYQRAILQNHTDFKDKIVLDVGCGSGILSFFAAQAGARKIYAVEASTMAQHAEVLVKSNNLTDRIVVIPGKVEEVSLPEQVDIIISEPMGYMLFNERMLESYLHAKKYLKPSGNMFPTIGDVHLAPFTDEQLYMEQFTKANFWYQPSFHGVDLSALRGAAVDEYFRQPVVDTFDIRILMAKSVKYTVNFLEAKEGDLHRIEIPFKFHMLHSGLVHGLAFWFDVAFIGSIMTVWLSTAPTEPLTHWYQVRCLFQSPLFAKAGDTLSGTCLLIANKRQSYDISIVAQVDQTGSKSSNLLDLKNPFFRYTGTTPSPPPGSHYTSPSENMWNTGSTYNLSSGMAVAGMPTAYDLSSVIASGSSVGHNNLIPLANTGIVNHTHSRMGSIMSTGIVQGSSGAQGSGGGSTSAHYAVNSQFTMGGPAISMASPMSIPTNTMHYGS
Description: Inhibition of CARM1 (unknown origin)

In experiment [2] the target is T2, Protein arginine N-methyltransferase 7 (Homo sapiens, UniProt Q9NVM4).
T2 sequence (Q9NVM4 whole entry): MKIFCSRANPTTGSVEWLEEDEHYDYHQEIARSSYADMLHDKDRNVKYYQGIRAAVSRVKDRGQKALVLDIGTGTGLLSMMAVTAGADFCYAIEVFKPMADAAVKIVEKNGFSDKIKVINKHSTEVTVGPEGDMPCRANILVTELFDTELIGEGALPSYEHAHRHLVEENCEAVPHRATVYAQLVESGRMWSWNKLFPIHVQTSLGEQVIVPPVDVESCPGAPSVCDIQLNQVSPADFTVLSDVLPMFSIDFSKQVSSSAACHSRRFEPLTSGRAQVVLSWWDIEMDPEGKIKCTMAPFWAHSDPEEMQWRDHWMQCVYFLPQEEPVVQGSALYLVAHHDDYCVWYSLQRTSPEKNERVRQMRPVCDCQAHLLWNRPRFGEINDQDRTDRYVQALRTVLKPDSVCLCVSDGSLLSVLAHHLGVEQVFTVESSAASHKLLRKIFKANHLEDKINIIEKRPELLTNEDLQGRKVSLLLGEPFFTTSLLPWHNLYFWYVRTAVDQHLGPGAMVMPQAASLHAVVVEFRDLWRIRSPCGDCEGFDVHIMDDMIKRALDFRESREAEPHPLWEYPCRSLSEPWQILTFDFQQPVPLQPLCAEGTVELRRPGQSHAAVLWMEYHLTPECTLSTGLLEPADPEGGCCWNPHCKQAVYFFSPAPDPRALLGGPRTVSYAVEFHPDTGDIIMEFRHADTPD
As to the kind of experiment: Inhibition of PRMT7 (unknown origin).

The target of experiment [3] is Protein arginine N-methyltransferase 3 (Homo sapiens, UniProt O60678). Put plainly: Inhibition of PRMT3 (unknown origin).
Experiment [4] addresses Protein arginine N-methyltransferase 6 (Homo sapiens, UniProt Q96LA8). Put plainly: Inhibition of PRMT6 (unknown origin).
The target of experiment [5] is Protein arginine N-methyltransferase 8 (Homo sapiens, UniProt Q9NR22). As to the kind of experiment: Inhibition of PRMT8 (unknown origin).
The target of experiment [6] is Protein arginine N-methyltransferase 5 (Homo sapiens, UniProt O14744). Put plainly: Inhibition of PRMT5 (unknown origin).
Protein arginine N-methyltransferase 5, sequence (O14744 whole entry): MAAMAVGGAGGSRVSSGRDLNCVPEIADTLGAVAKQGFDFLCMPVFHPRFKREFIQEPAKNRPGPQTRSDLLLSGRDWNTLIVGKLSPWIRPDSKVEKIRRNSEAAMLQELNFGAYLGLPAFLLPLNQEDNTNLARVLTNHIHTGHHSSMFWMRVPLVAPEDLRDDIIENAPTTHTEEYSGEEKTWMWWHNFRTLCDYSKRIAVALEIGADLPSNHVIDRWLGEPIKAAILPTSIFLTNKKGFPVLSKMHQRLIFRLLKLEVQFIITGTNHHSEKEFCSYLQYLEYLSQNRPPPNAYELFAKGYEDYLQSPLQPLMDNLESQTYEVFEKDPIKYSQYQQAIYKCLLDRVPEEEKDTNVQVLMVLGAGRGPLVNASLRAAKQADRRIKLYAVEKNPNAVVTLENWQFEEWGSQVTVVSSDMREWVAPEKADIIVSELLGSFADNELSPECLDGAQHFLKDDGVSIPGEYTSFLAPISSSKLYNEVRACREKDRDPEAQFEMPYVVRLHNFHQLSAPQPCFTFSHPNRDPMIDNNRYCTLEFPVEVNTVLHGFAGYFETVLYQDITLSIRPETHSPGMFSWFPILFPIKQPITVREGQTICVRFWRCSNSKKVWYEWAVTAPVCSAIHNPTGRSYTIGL

Protein arginine N-methyltransferase 3, sequence (O60678 whole entry): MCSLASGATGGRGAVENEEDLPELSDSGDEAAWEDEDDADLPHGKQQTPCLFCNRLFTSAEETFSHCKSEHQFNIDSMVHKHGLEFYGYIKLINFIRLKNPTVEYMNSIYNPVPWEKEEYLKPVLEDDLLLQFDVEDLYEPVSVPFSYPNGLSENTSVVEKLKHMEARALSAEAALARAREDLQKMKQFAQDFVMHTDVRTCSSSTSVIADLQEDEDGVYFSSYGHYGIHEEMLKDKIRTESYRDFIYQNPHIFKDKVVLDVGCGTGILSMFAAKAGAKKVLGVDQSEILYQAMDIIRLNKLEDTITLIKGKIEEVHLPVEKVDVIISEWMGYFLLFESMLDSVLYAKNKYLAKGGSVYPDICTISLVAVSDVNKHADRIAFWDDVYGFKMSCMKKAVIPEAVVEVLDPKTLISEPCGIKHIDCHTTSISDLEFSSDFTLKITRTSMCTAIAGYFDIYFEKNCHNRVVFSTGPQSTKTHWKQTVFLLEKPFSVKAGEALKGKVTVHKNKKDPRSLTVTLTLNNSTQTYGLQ
Protein arginine N-methyltransferase 6, sequence (Q96LA8 whole entry): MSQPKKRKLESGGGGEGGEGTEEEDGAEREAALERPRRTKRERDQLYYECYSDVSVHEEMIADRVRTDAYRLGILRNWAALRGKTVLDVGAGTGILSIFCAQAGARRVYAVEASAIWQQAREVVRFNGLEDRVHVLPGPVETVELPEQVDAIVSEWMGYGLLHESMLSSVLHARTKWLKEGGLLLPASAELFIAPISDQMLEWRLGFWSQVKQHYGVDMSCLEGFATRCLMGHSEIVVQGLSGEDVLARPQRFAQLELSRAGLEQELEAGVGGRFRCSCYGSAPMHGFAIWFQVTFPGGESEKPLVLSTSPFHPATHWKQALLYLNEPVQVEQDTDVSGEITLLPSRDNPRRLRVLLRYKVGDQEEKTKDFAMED
Protein arginine N-methyltransferase 8, sequence (Q9NR22 whole entry): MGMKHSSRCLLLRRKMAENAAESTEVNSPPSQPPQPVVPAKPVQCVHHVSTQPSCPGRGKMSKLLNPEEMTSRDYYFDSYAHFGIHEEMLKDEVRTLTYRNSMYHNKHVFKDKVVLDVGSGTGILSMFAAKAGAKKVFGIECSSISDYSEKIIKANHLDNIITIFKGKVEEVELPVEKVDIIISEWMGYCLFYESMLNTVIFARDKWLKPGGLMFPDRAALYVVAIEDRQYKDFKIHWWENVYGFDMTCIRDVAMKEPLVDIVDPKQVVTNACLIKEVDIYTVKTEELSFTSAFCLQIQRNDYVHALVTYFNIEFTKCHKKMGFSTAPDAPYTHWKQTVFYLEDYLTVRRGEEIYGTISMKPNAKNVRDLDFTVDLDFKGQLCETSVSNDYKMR

In experiment [1], `CNCC(O)CN1CCc2c(cccc2OCc2ccc(-c3nccs3)cc2)C1` (stereo unspecified) showed an IC50 of 21 nM.

In the case of `CNC[C@H](O)CN(C)Cc1ccccc1OCc1ccc(-c2nccs2)c(Cl)c1`, the IC50 is more than 100000 nM in experiment [2]; 942 nM in experiment [3]; 64 nM in experiment [4]; 73 nM in experiment [5]; more than 100000 nM in experiment [6].

Broadly, the IC50 is the concentration needed to halve the response being measured.
